One compound from US11564875B2, “Cosmetic composition for skin regeneration” (Amorepacific Corporation, priority 2018, dated 2023) can be followed below.

Data set [1] is described as follows: Cytotoxicity evaluation using a serum-free media. The data set is classed as cell-based. How it is done:
A cytotoxicity evaluation of the compound represented by Chemical Formula 1-1 was twice performed by using a serum-free media, and the results are shown in FIGS. 5 and 6. Referring to FIGS. 5 and 6, a significant cytotoxicity concentration of the compound represented by Chemical Formula 1-1 was 20 μM (cell viability<80%).

Data set [2] deals with AQP3, PPAR-α, PPAR-β, K5, and K14 gene level in human keratinocyte cell line (HaCaT cells). Description: Skin regeneration effect after ultraviolet (UV) irradiation: gene level changes in UVA-irradiated HaCaT cells. The data set is classed as cell-based. Conditions: for skin regeneration effect: HaCaT cells. An excerpt:
A human keratinocyte cell line (HaCaT cells) was irradiated with ultraviolet (UVA) (2 J/cm^2, 3 J/cm^2) and then, treated with a compound represented by Chemical Formula 1-1 (camellenodiol), which was obtained by extracting 10 kg of dry camellia powder with water-soluble ethanol and subsequently, performing filtration, concentration under a reduced pressure, and purification by using HP-20 and silica chromatography, to exam AQP3, PPAR-α, PPAR-β, K5, and K14 gene level changes, and the results are shown in FIGS. 1 to 4.

A word on the cell viability: it is the share of living cells, or the viability signal relative to a control. `CC1(C)CC[C@]2(O)C(=O)C[C@]3(C)C(=CC[C@@H]4[C@@]5(C)CC[C@H](O)C(C)(C)[C@@H]5CC[C@]43C)[C@@H]2C1` [Chemical Formula 1-1, camellenodiol] registered a cell viability in data set [1] (at 20 μM) of less than 80%. In addition, the significant cytotoxicity concentration in data set [1] (performed twice, criterion cell viability<80%, FIGS. 5 and 6) was determined as 20 µM. For the same compound, the “levels of the genes (AQP3, PPAR-α, PPAR-β, K5, K14)” value in data set [2] (HaCaT cells after UVA irradiation (2 J/cm^2, 3 J/cm^2), compound at 5 μM to 10 μM, specifically 7.5 μM, FIGS. 1 to 4) was “significantly increased”. Also, the skin regeneration effect entry was “excellent skin regeneration effect” in data set [2] (UVA 2 J/cm^2, compound at 7.5 μM to 10 μM) and “excellent skin regeneration effect” in data set [2] (UVA 3 J/cm^2, compound at 5 μM to 7.5 μM).
